pIC50: −log10 of the molar value. Where only a bound is given, the exact number is not on record here.

In the assay the target is T1, dihydrolipoamide acyltransferase (DlaT) (Mycobacterium tuberculosis, UniProt P9WIS7).
T1 sequence (P9WIS7 1-553): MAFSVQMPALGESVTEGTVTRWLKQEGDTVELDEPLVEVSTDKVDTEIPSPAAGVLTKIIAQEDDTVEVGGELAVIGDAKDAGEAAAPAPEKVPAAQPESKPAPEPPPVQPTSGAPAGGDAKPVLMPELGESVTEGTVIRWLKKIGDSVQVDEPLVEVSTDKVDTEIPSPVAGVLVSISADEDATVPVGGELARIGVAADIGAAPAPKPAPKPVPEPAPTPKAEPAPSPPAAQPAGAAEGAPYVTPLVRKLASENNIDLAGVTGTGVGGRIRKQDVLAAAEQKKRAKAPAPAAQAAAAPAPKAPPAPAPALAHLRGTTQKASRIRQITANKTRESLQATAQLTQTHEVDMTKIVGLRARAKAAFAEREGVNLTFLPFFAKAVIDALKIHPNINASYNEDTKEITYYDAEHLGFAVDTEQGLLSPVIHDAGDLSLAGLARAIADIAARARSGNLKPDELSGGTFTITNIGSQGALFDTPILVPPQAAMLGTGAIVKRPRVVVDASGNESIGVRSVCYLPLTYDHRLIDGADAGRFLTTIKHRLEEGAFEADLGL
Put plainly: DlaT inhibition (Dlat IC50); DTNB peroxidase assay with Lpd, DlaT and AhpD. It counts as biochemical. The settings on record: Dlat IC50 category.
A word on the pIC50: it is −log10 of the IC50, conventionally taken in molar units. The compound `Cc1cc(F)ccc1-c1ccc(C=C2SC(=S)N(C3CCCC(C(=O)O)C3)C2=O)o1` (centres unmarked) [Compound C11, 3-{5-[1-[5-(2-methyl-4-fluoro-phenyl)-furan-2-yl]-methylidene]-4-oxo-2-thioxo-thiazolidin-3-yl}-cyclohexanecarboxylic acid] showed a negative logarithm of the IC50 (pIC50) above 5.00.

As to `Cc1ccc(-c2ccc(C=C3SC(=S)N(C4CCCC(C(=O)O)C4)C3=O)o2)c(F)c1` (centres unmarked) [Compound C12, 3-{5-[1-[5-(2-fluoro-4-methyl-phenyl)-furan-2-yl]-methylidene]-4-oxo-2-thioxo-thiazolidin-3-yl}-cyclohexanecarboxylic acid], the negative-log IC50 (pIC50) is above 5.00.

The compound `O=C(O)C1CCCC(N2C(=O)C(=Cc3ccc(-c4ccccc4O)o3)SC2=S)C1` (centres unmarked) [Compound C13, 3-{5-[1-[5-(2-hydroxy-phenyl)-furan-2-yl]-methylidene]-4-oxo-2-thioxo-thiazolidin-3-yl}-cyclohexanecarboxylic acid] showed a pIC50 above 5.00.

`Cc1ccc(-c2ccc(C=C3SC(=S)N(C4CCCC(C(=O)O)C4)C3=O)o2)cc1` (centres unmarked) [Compound C14, 3-{4-oxo-2-thioxo-5-[1-(5-p-tolyl-furan-2-yl)-methylidene]-thiazolidin-3-yl}-cyclohexanecarboxylic acid]: the negative logarithm of the IC50 (pIC50) is above 5.00.

Compound `COc1ccc(-c2ccc(C=C3SC(=S)N(C4CCCC(C(=O)O)C4)C3=O)o2)cc1` (centres unmarked) [Compound C15, 3-{5-[1-[5-(4-methoxy-phenyl)-furan-2-yl]-methylidene]-4-oxo-2-thioxo-thiazolidin-3-yl}-cyclohexanecarboxylic acid] had a pIC50 above 5.00.

`O=C(O)C1CCC(N2C(=O)C(=Cc3ccc(-c4ccccc4Cl)o3)SC2=S)CC1` (centres unmarked) [Compound C16, 4-{5-[1-[5-(2-chloro-phenyl)-furan-2-yl]-methylidene]-4-oxo-2-thioxo-thiazolidin-3-yl}-cyclohexanecarboxylic acid] showed a pIC50 above 5.00.

Compound `O=C(O)C1CCC(N2C(=O)C(=Cc3ccc(-c4cccc(C(F)(F)F)c4)o3)SC2=S)CC1` (centres unmarked) [Compound C17, 4-{5-[1-[5-(3-trifluoromethyl-phenyl)-furan-2-yl]-methylidene]-4-oxo-2-thioxo-thiazolidin-3-yl}-cyclohexanecarboxylic acid] showed a negative logarithm of the IC50 (pIC50) above 5.00.

The compound `O=C(O)C1CCC(N2C(=O)C(=Cc3ccc(-c4ccc(Cl)cc4)o3)SC2=S)CC1` (centres unmarked) [Compound C18, 4-{5-[1-[5-(4-chloro-phenyl)-furan-2-yl]-methylidene]-4-oxo-2-thioxo-thiazolidin-3-yl}-cyclohexanecarboxylic acid] had a pIC50 above 5.00.

The compound `COc1ccc(-c2ccc(C=C3SC(=S)N(C4CCCC(C(=O)O)C4)C3=O)o2)c(OC)c1` (centres unmarked) [Compound C19, 3-{5-[1-[5-(2,4-dimethoxy-phenyl)-furan-2-yl]-methylidene]-4-oxo-2-thioxo-thiazolidin-3-yl}-cyclohexanecarboxylic acid] had a pIC50 above 5.00.

`Cc1cc(Cl)ccc1-c1ccc(C=C2SC(=S)N(C3CCCC(C(=O)O)C3)C2=O)o1` (centres unmarked) [Compound C20, 3-{5-[1-[5-(4-chloro-2-methyl-phenyl)-furan-2-yl]-methylidene]-4-oxo-2-thioxo-thiazolidin-3-yl}-cyclohexanecarboxylic acid] showed a negative-log IC50 (pIC50) above 5.00.

For `O=C1C(=Cc2ccc(-c3ccccc3Cl)o2)SC(=S)N1C1CCC(O)CC1` (centres unmarked) [Compound C21, 5-[1-[5-(2-chloro-phenyl)-furan-2-yl]-methylidene]-3-(4-hydroxy-cyclohexyl)-2-thioxo-thiazolidin-4-one], the pIC50 is 4.40 to 4.96.

Consider `O=C1C(=Cc2ccc(-c3ccc(Cl)cc3)o2)SC(=S)N1C1CCC(O)CC1` (centres unmarked) [Compound C22, 5-[1-[5-(4-chloro-phenyl)-furan-2-yl]-methylidene]-3-(4-hydroxy-cyclohexyl)-2-thioxo-thiazolidin-4-one], for which the negative-log IC50 (pIC50) is 4.40 to 4.96.

On to `Cc1cccc(C)c1-c1ccc(C=C2SC(=S)N(C3CCCC(C(=O)O)C3)C2=O)o1` (centres unmarked) [Compound C23, 3-{5-[5-(2,6-Dimethyl-phenyl)-furan-2-ylmethylene]-4-oxo-2-thioxo-thiazolidin-3-yl}-cyclohexanecarboxylic acid], for which the negative logarithm of the IC50 (pIC50) is 4.40 to 4.96.

The compound `Cc1ccccc1-c1cccc(C=C2SC(=S)N(C3CCCC(C(=O)O)C3)C2=O)c1` (centres unmarked) [Compound C24, 3-{5-[1-(2′-methyl-biphenyl-3-yl)-methylidene]-4-oxo-2-thioxo-thiazolidin-3-yl}cyclohexanecarboxylic acid] had a pIC50 of 4.40 to 4.96.

Consider `COc1cc(F)ccc1-c1ccc(C=C2SC(=S)N(C3CCCC(C(=O)O)C3)C2=O)o1` (centres unmarked) [Compound C25, 3-{5-[1-[5-(4-fluoro-2-methoxy-phenyl)-furan-2-yl]-methylidene]-4-oxo-2-thioxo-thiazolidin-3-yl}-cyclohexanecarboxylic acid], for which the negative-log IC50 (pIC50) is above 5.00.

`COc1ccc(-c2ccc(C=C3SC(=S)N(C4CCCC(C(=O)O)C4)C3=O)o2)cc1F` (centres unmarked) [Compound C26, 3-{5-[1-[5-(3-fluoro-4-methoxy-phenyl)-furan-2-yl]-methylidene]-4-oxo-2-thioxo-thiazolidin-3-yl}-cyclohexanecarboxylic acid] gave a negative logarithm of the IC50 (pIC50) above 5.00.

Take `O=C(O)C1CCCC(N2C(=O)C(=Cc3ccc(-c4ccccc4OCc4ccccc4)o3)SC2=S)C1` (centres unmarked) [Compound C27, 3-{5-[1-[5-(2-benzyloxy-phenyl)-furan-2-yl]-methylidene]-4-oxo-2-thioxo-thiazolidin-3-yl}-cyclohexanecarboxylic acid]: the negative logarithm of the IC50 (pIC50) was above 5.00.

`Cc1cc(C)c(-c2ccc(C=C3SC(=S)N(C4CCCC(C(=O)O)C4)C3=O)o2)c(C)c1` (centres unmarked) [Compound C28, 3-{4-Oxo-2-thioxo-5-[5-(2,4,6-trimethyl-phenyl)-furan-2-ylmethylene]-thiazolidin-3-yl}-cyclohexanecarboxylic acid] showed a pIC50 above 5.00.

In the case of `Cc1cc(N(C)C)ccc1-c1ccc(C=C2SC(=S)N(C3CCCC(C(=O)O)C3)C2=O)o1` (centres unmarked) [Compound C29, 3-{5-[5-(4-Dimethylamino-2-methyl-phenyl)-furan-2-ylmethylene]-4-oxo-2-thioxo-thiazolidin-3-yl}-cyclohexanecarboxylic acid], the pIC50 was 4.40 to 4.96.

On to `CSc1ccccc1-c1ccc(C=C2SC(=S)N(C3CCCC(C(=O)O)C3)C2=O)o1` (centres unmarked) [Compound C30, 3-{5-[1-[5-(2-methylsulfanyl-phenyl)-furan-2-yl]-methylidene]-4-oxo-2-thioxo-thiazolidin-3-yl}-cyclohexanecarboxylic acid], for which the pIC50 was above 5.00.

For `Cc1ccccc1-c1ccc(C=C2SC(=S)N(C3CCCC(C(=O)O)C3)C2=O)s1` (centres unmarked) [Compound C31, 3-{4-oxo-2-thioxo-5-[1-(5-o-tolyl-thiophen-2-yl)-methylidene]-thiazolidin-3-yl}-cyclohexanecarboxylic acid], the negative logarithm of the IC50 (pIC50) is 4.40 to 4.96.

The compound `O=C(O)C1CCCC(N2C(=O)C(=Cc3ccc(-c4ccccc4Cl)s3)SC2=S)C1` (centres unmarked) [Compound C32, 3-{4-oxo-2-thioxo-5-[1-(5-(2-chloro-phenyl)-thiophen-2-yl)-methylidene]-thiazolidin-3-yl}-cyclohexanecarboxylic acid] had a pIC50 above 5.00.

For the compound `O=C(O)C1CCCC(N2C(=O)C(=Cc3ccccc3OCc3ccccc3Cl)SC2=S)C1` (centres unmarked) [Compound C33, 3-{5-[2-(2-Chloro-benzyloxy)-benzylidene]-4-oxo-2-thioxo-thiazolidin-3-yl}-cyclohexanecarboxylic acid], the pIC50 was 4.40 to 4.96.

For `O=C(O)C1CCCC(N2C(=O)C(=Cc3ccc(-c4ccccc4Oc4ccccc4)o3)SC2=S)C1` (centres unmarked) [Compound C34, 3-{4-oxo-5-[1-[5-(2-phenoxy-phenyl)-furan-2-yl]-methylidene]-2-thioxo-thiazolidin-3-yl}-cyclohexanecarboxylic acid], the negative-log IC50 (pIC50) is above 5.00.

On to `O=C(O)C1CCCC(N2C(=O)C(=Cc3ccc(-c4ccccc4F)s3)SC2=S)C1` (centres unmarked) [Compound C35, 3-{5-[1-[5-(2-fluoro-phenyl)-thiophen-2-yl]-methylidene]-4-oxo-2-thioxo-thiazolidin-3-yl}-cyclohexanecarboxylic acid], for which the pIC50 is 4.40 to 4.96.

Turning to `CCc1ccc(-c2ccc(C=C3SC(=S)N(C4CCCC(C(=O)O)C4)C3=O)o2)cc1` (centres unmarked) [Compound C36, 3-{5-[1-[5-(4-ethyl-phenyl)-furan-2-yl]-methylidene]-4-oxo-2-thioxo-thiazolidin-3-yl}-cyclohexanecarboxylic acid], the negative logarithm of the IC50 (pIC50) is above 5.00.

As to `O=C(O)C1CCCC(N2C(=O)C(=Cc3ccc(-c4ccc(C(F)(F)F)cc4)o3)SC2=S)C1` (centres unmarked) [Compound C37, 3-{4-oxo-2-thioxo-5-[1-[5-(4-trifluoromethyl-phenyl)-furan-2-yl]-methylidene]-thiazolidin-3-yl}-cyclohexanecarboxylic acid], the pIC50 was above 5.00.

Take `O=C(O)C1CCCC(N2C(=O)C(=Cc3ccc(-c4cccc(-c5ccccc5)c4)o3)SC2=S)C1` (centres unmarked) [Compound C38, 3-{5-[1-(5-biphenyl-3-yl-furan-2-yl)-methylidene]-4-oxo-2-thioxo-thiazolidin-3-yl}-cyclohexanecarboxylic acid]: the pIC50 is above 5.00.

As to `CC(=O)Nc1ccc(-c2ccc(C=C3SC(=S)N(C4CCCC(C(=O)O)C4)C3=O)o2)cc1` (centres unmarked) [Compound C39, 3-{5-[5-(4-Acetylamino-phenyl)-furan-2-ylmethylene]-4-oxo-2-thioxo-thiazolidin-3-yl}-cyclohexanecarboxylic acid], the negative logarithm of the IC50 (pIC50) was above 5.00.

For the origin of these results see patent US8338465B2, “Cyclic carboxylic acid rhodanine derivatives for the treatment and prevention of tuberculosis” (priority 2006, dated 2012).
